For one experiment, the target named is BRD4-1 (Homo sapiens (Human), UniProt O60885). The experiment is described as follows: Bromodomain and Extraterminal Domain (BET) binding assay, BRD4-1. The following applies: histone H4 peptide (1-21) K5/8/12/16Ac-biotin ligand; 20 nM protein, 20 nM ligand. Here is the method: (§1) The bromodomain binding assays were performed by Reaction Biology Corp., Malvern, Pa., USA (www.reactionbiology.com). The BET binding assays were conducted in 384 well microplates in assay buffer (50 mM HEPES-HCl, pH 7.5, 100 mM NaCl, 1 mg/ml BSA, 0.05% CHAPS, and 0.5% DMSO) with compounds added as DMSO stocks at a single concentration or with 10-point dose response titrations. BET protein or assay buffer were delivered to the appropriate wells of the microplate. Test compound was then delivered by acoustic technology via a Labcyte Echo550 liquid handler. The microplate was centrifuged for 5 min and pre-incubated for 30 min at RT with gentle shaking. The ligand (histone H4 peptide (1-21) K5/8/12/16Ac-biotin) was delivered and the microplate was again centrifuged for 5 min and allowed to incubate for 30 min at RT with gentle shaking. Donor beads were then added in the absence of light and the microplate was centrifuged and gently shaken. After 5 min, acceptor beads were added in the absence of light and the microplate was centrifuged and gently shaken in the dark for 60 min. The microplate was read using a Perkin Elmer EnSpire Alpha plate reader (λ Ex/λ Em=680/520-620 nm). Percent inhibition was calculated relative to positive and negative controls on a per plate basis. For titration experiments, IC50 values were determined by fitting the percent inhibition versus compound concentration.

In a further experiment the target is BRD4-2 (Homo sapiens (Human), UniProt O60885). The experiment is described as follows: Bromodomain and Extraterminal Domain (BET) binding assay, BRD4-2. Conditions: histone H4 peptide (1-21) K5/8/12/16Ac-biotin ligand; 130 nM protein, 70 nM ligand. Here is the method: as §1
For experiment [1], the system named is MV-4-11 human acute myeloid leukemia cell line. Description: Cell viability assay in MV-4-11 cells (Cell Titer-Glo). Conditions: MV4-11, 72 hrs incubation. Format: cell-based. Here is the method:
The effects of test compounds were studied in a cell viability assay in the MV-4-11 human acute myeloid leukemia cell line. The cells were harvested during the logarithmic growth period and counted. Cells were seeded at a count of 15000 cells per well/100 μl. After seeding, cells were incubated at 37° C. 5% CO2 for 1 hr. Cells were treated with test compounds at 8 concentrations within a desired concentration range (e.g. 5 nM-10 μM) for generation of dose response curves by preparing serial dilutions of the test compound in DMSO which were further diluted with culture medium and then added to each well. The plate was further incubated for another 72 hrs in a humidified incubator at 37° C. and 5% CO2. The assay was terminated by addition of Cell Titer-Glo reagent (Promega, Madison, Wis.) at ¼ the volume of total medium per well. Contents were mixed, the plate was incubated for 10 min at room temperature and luminescence was measured. Cell viability data were plotted using GraphPad Prism (GraphPad Software, Inc., San Diego, Calif.). In addition, a nonlinear regression model with a sigmoidal dose response and variable slope within GraphPad Prism was used to calculate the IC50 value of individual test compounds.
For orientation: In ATP-based viability assays light output follows the ATP content of the culture.

The test system of experiment [2] is IEC-6 rat intestinal epithelial cell line. The experiment is described as follows: Cell viability assay in IEC-6 cells (resazurin), potential toxicity to non-cancerous cells. It counts as cell-based. Here is the method:
The effects of test compounds were also studied in the IEC-6 rat intestinal epithelial cell line to assess potential toxicity to non-cancerous cells. The cells were harvested during the logarithmic growth period and counted. In Protocol A, cells were seeded at a count of 3000 cells per well/100 μl in a 96-well plate. After seeding, cells were incubated at 37° C. 5% CO2 for 24 hr. Cells were treated with test compounds at 8 concentrations within a desired concentration range (e.g. 5 nM-10 μM) for generation of dose response curves by preparing serial dilutions of the test compound in DMSO which were further diluted with culture medium and then added to each well. The plate was further incubated for another 96 hrs in humidified incubator at 37° C. and 5% CO2. The assay was terminated by addition of resazurin (#R7017, Sigma). The plate was incubated for 4 hr at 37° C. 5% CO2 and fluorescence was measured using excitation and emission wavelengths of 535 and 590 nm, respectively. Cell viability data were plotted using GraphPad Prism (GraphPad Software, Inc., San Diego, Calif.). In addition, a nonlinear regression model with a sigmoidal dose response and variable slope within GraphPad Prism was used to calculate the IC50 value of individual test compounds. Protocol B was the same as Protocol A except that cells were seeded at a count of 4000 cells per well/100 μl in a 96-well plate, and the incubation with test compound was for 48 hrs instead of 96 hrs.
In general terms: Alamar Blue is a resazurin reagent that responds to reducing activity.

Where [3] appears, read: Protocol A: 3000 cells per well, 96 hrs incubation with test compound, read-out: Protocol A IC50 (μM), cell viability in IEC-6 cells.
Setting [4] is: Protocol B: 4000 cells per well, 48 hrs incubation with test compound, read-out: Protocol B IC50 (μM), cell viability in IEC-6 cells.

We go through eight molecules from patent publication US11584756B2, “Heterocyclic compounds as BET inhibitors” (NUVATION BIO INC., priority 2019, dated 2023).

Where two headings read alike, the source gives them in different places.

Consider `CCNC(=O)c1cc2c(-c3cc(C(C)(C)O)ccc3Oc3c(C)cc(F)cc3C)cn(C)c(=O)c2s1` [Compound 1, N-ethyl-4-(2-(4-fluoro-2,6-dimethylphenoxy)-5-(2-hydroxypropan-2-yl)phenyl)-6-methyl-7-oxo-6,7-dihydrothieno[2,3-c]pyridine-2-carboxamide], for which the IC50 on BRD4-1 is 10100 nM; on BRD4-2 it was 2 nM; in experiment [1], 0.131 µM; in experiment [2] (setting [3]), 0.266 µM; in experiment [2] (setting [4]), 4.91 µM.
For the molecule `CCNC(=O)c1cc2c(-c3cc(C(C)(C)O)ccc3Oc3ccc(Cl)cc3Cl)cn(C)c(=O)c2s1` [Compound 2, 4-(2-(2,4-dichlorophenoxy)-5-(2-hydroxypropan-2-yl)phenyl)-N-ethyl-6-methyl-7-oxo-6,7-dihydrothieno[2,3-c]pyridine-2-carboxamide], the IC50 stood at 1 nM on BRD4-2, 0.111 µM in experiment [1] and 0.061 µM in experiment [2] (setting [3]).
As to `CCNC(=O)c1cc2c(-c3cc(C(C)(C)O)ccc3Oc3ccc(F)cc3F)cn(C)c(=O)c2s1` [Compound 3, 4-(2-(2,4-difluorophenoxy)-5-(2-hydroxypropan-2-yl)phenyl)-N-ethyl-6-methyl-7-oxo-6,7-dihydrothieno[2,3-c]pyridine-2-carboxamide], the IC50 on BRD4-1 is 2050 nM; on BRD4-2 it was less than 2 nM; in experiment [1], 0.074 µM; in experiment [2] (setting [3]), 0.089 µM.
In the case of `CCS(=O)(=O)Nc1ccc(Oc2c(C)cccc2C)c(-c2cn(C)c(=O)c3sc(-c4nnc(C)o4)cc23)c1` [Compound 4, N-(4-(2,6-dimethylphenoxy)-3-(6-methyl-2-(5-methyl-1,3,4-oxadiazol-2-yl)-7-oxo-6,7-dihydrothieno[2,3-c]pyridin-4-yl)phenyl)ethanesulfonamide], the IC50 at BRD4-1 is 197 nM; on BRD4-2, 6 nM; in experiment [1] it was 0.115 µM; in experiment [2] (setting [3]) it was 0.048 µM; in experiment [2] (setting [4]) it was 0.283 µM.
The like results for `Cc1noc(-c2cc3c(-c4cc(C(C)(C)O)ccc4Oc4ccc(F)cc4F)cn(C)c(=O)c3s2)n1` [Compound 8, 4-(2-(2,4-difluorophenoxy)-5-(2-hydroxypropan-2-yl)phenyl)-6-methyl-2-(3-methyl-1,2,4-oxadiazol-5-yl)thieno[2,3-c]pyridin-7(6H)-one] were, in that order, 94 nM, 74 nM, 0.379 µM, 0.156 µM and 0.521 µM.
For the molecule `Cc1cc(F)cc(C)c1Oc1ccc(C(C)(C)O)cc1-c1cn(C)c(=O)c2sc(-c3nc4ccccc4[nH]3)cc12` [Compound 154, 2-(1H-benzo[d]imidazol-2-yl)-4-(2-(4-fluoro-2,6-dimethylphenoxy)-5-(2-hydroxypropan-2-yl)phenyl)-6-methylthieno[2,3-c]pyridin-7(6H)-one], the IC50 at BRD4-1 was more than 10000 nM; on BRD4-2 it was 284 nM; in experiment [1], 2.89 µM.
In the same order, the values of `CCS(=O)(=O)Nc1ccc(Oc2c(C)cc(F)cc2C)c(-c2cn(C)c(=O)c3sc(-c4nc5ccccc5[nH]4)cc23)c1` [Compound 157, N-(3-(2-(1H-benzo[d]imidazol-2-yl)-6-methyl-7-oxo-6,7-dihydrothieno[2,3-c]pyridin-4-yl)-4-(4-fluoro-2,6-dimethylphenoxy)phenyl)ethane sulfonamide] are more than 10000 nM, 145 nM and 0.55 µM.
For the molecule `CCS(=O)(=O)Nc1ccc(Oc2ccc(F)cc2F)c(-c2cn(C)c(=O)c3sc(-c4nc5ccccc5o4)cc23)c1` [Compound 158, N-(3-(2-(benzo[d]oxazol-2-yl)-6-methyl-7-oxo-6,7-dihydrothieno[2,3-c]pyridin-4-yl)-4-(2,4-difluorophenoxy)phenyl)ethanesulfonamide], the IC50 at BRD4-1 came out at 103 nM; on BRD4-2, 196 nM; in experiment [1] it was 0.56 µM.

By IC50 is commonly meant the concentration that gives 50% inhibition.
